One may read the plant injury as how far the test organism was held down. A high value points to a strong effect. Usually pest or weed control stands for how far the test organism was held down. A high value points to a strong effect.

For 5 compounds, plant injury and pest or weed control results are on record in patent US4868321A, “Isothiocyanate intermediates” (FMC Corporation, priority 1988, dated 1989).

Common to all, as to assay type: in vivo
Assay [1] deals with Field Corn. As to the kind of experiment: Preemergence Herbicidal Activity, Field Corn. The conditions noted are these: Zea mays, pre-emergence; for plant injury at 1000 g/ha: 1.0 kg/ha; for plant injury at 2000 g/ha: 2.0 kg/ha. An outline of the steps:
(§1)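 The reported numbers are percent control, obtained after treatment at rates quantified as kilograms per hectare.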

For assay [2], the system named is Field Bindweed. As to the kind of experiment: Preemergence Herbicidal Activity, Field Bindweed. The conditions noted are these: pre-emergence; for pest or weed control at 1000 g/ha: 1.0 kg/ha; for pest or weed control at 2000 g/ha: 2.0 kg/ha. An outline of the steps: (§2)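 Herbicide dissolved, usually in 50/50 acetone/water, then applied preemergence or postemergence at a set kg/ha rate. Control assessed as % C.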

Assay [3] deals with Field Corn. Put plainly: Postemergence Herbicidal Activity, Field Corn. The conditions noted are these: Zea mays, post-emergence; for plant injury at 1000 g/ha: 1.0 kg/ha; for plant injury at 2000 g/ha: 2.0 kg/ha. An outline of the steps: as §1
In assay [4] the test system is Green Foxtail. As to the kind of experiment: Postemergence Herbicidal Activity, Green Foxtail. The conditions noted are these: Setaria viridis, post-emergence; for pest or weed control at 1000 g/ha: 1.0 kg/ha; for pest or weed control at 2000 g/ha: 2.0 kg/ha. An outline of the steps:
(§3)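 Kilogram-per-hectare application rates; outcome scored by percent control of treated plants.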

For assay [5], the system named is Velvetleaf. Put plainly: Preemergence Herbicidal Activity, Velvetleaf. The conditions noted are these: Abutilon theophrasti, pre-emergence; for pest or weed control at 1000 g/ha: 1.0 kg/ha; for pest or weed control at 2000 g/ha: 2.0 kg/ha. The procedure, abridged: as §2
Assay [6] has as its system Barnyardgrass. Put plainly: Postemergence Herbicidal Activity, Barnyardgrass. Conditions: Echinochloa crus-galli, post-emergence; for pest or weed control at 1000 g/ha: 1.0 kg/ha; for pest or weed control at 2000 g/ha: 2.0 kg/ha. An outline of the steps: as §3
Assay [7] deals with Cotton. Put plainly: Postemergence Herbicidal Activity, Cotton. The conditions noted are these: Gossypium hirsutum, post-emergence; for plant injury at 1000 g/ha: 1.0 kg/ha; for plant injury at 2000 g/ha: 2.0 kg/ha. An outline of the steps: as §2
Assay [8] has as its system Morningglory. Put plainly: Preemergence Herbicidal Activity, Morningglory. Conditions: Ipomoea, pre-emergence; for pest or weed control at 1000 g/ha: 1.0 kg/ha; for pest or weed control at 2000 g/ha: 2.0 kg/ha. An outline of the steps: as §2
Assay [9] deals with Wheat. As to the kind of experiment: Preemergence Herbicidal Activity, Wheat. Conditions: Triticum aestivum, pre-emergence; for plant injury at 1000 g/ha: 1.0 kg/ha; for plant injury at 2000 g/ha: 2.0 kg/ha. An outline of the steps: as §1
Assay [10] concerns Morningglory. Put plainly: Postemergence Herbicidal Activity, Morningglory. Conditions: Ipomoea, post-emergence; for pest or weed control at 1000 g/ha: 1.0 kg/ha; for pest or weed control at 2000 g/ha: 2.0 kg/ha. The procedure, abridged: as §2
Assay [11] relates to Barnyardgrass. Put plainly: Preemergence Herbicidal Activity, Barnyardgrass. Conditions: Echinochloa crus-galli, pre-emergence; for pest or weed control at 1000 g/ha: 1.0 kg/ha; for pest or weed control at 2000 g/ha: 2.0 kg/ha. The procedure, abridged:
as §3

Assay [12] deals with Field Bindweed. Put plainly: Postemergence Herbicidal Activity, Field Bindweed. Conditions: post-emergence; for pest or weed control at 1000 g/ha: 1.0 kg/ha; for pest or weed control at 2000 g/ha: 2.0 kg/ha. The procedure, abridged: as §2
For assay [13], the system named is Johnsongrass. Put plainly: Postemergence Herbicidal Activity, Johnsongrass. The conditions noted are these: Sorghum halepense, post-emergence; for pest or weed control at 1000 g/ha: 1.0 kg/ha; for pest or weed control at 2000 g/ha: 2.0 kg/ha. An outline of the steps:
as §3

Assay [14] relates to Johnsongrass. Put plainly: Preemergence Herbicidal Activity, Johnsongrass. Conditions: Sorghum halepense, pre-emergence; for pest or weed control at 1000 g/ha: 1.0 kg/ha; for pest or weed control at 2000 g/ha: 2.0 kg/ha. An outline of the steps:
as §3

Assay [15] concerns Green Foxtail. As to the kind of experiment: Preemergence Herbicidal Activity, Green Foxtail. Conditions: Setaria viridis, pre-emergence; for pest or weed control at 1000 g/ha: 1.0 kg/ha; for pest or weed control at 2000 g/ha: 2.0 kg/ha. The procedure, abridged:
as §3

The subject of assay [16] is Wheat. As to the kind of experiment: Postemergence Herbicidal Activity, Wheat. The conditions noted are these: Triticum aestivum, post-emergence; for plant injury at 1000 g/ha: 1.0 kg/ha; for plant injury at 2000 g/ha: 2.0 kg/ha. The procedure, abridged:
as §1

Assay [17] relates to Soybean. As to the kind of experiment: Postemergence Herbicidal Activity, Soybean. Conditions: Glycine max, post-emergence; for plant injury at 1000 g/ha: 1.0 kg/ha; for plant injury at 2000 g/ha: 2.0 kg/ha. The procedure, abridged: as §1
Assay [18] deals with Rice. Put plainly: Postemergence Herbicidal Activity, Rice. The conditions noted are these: Oryza sativa, post-emergence; for plant injury at 1000 g/ha: 1.0 kg/ha; for plant injury at 2000 g/ha: 2.0 kg/ha. An outline of the steps:
as §1

The test system of assay [19] is Rice. As to the kind of experiment: Preemergence Herbicidal Activity, Rice. The conditions noted are these: Oryza sativa, pre-emergence; for plant injury at 1000 g/ha: 1.0 kg/ha; for plant injury at 2000 g/ha: 2.0 kg/ha. An outline of the steps:
as §1

For assay [20], the system named is Velvetleaf. As to the kind of experiment: Postemergence Herbicidal Activity, Velvetleaf. Conditions: Abutilon theophrasti, post-emergence; for pest or weed control at 1000 g/ha: 1.0 kg/ha; for pest or weed control at 2000 g/ha: 2.0 kg/ha. The procedure, abridged: as §2
Assay [21] has as its system Cotton. Put plainly: Preemergence Herbicidal Activity, Cotton. The conditions noted are these: Gossypium hirsutum, pre-emergence; for plant injury at 1000 g/ha: 1.0 kg/ha; for plant injury at 2000 g/ha: 2.0 kg/ha. The procedure, abridged: as §2
The test system of assay [22] is Soybean. Put plainly: Preemergence Herbicidal Activity, Soybean. The conditions noted are these: Glycine max, pre-emergence; for plant injury at 1000 g/ha: 1.0 kg/ha; for plant injury at 2000 g/ha: 2.0 kg/ha. An outline of the steps: as §1

Consider `CS(=O)(=O)Nc1cc(-n2nnn(CCCF)c2=O)c(Cl)cc1F` [Compound 38, 1-[2-Chloro-4-fluoro-5-(N--methylsulfonylamino)phenyl]-4,5-dihydro-4-(3-fluoropropyl)-5H--tetrazol-5-one], for which the plant injury at 1000 g/ha was found to be 10% in the assay on Field Corn [1]; 50% in the assay with Field Corn [3]; 95% with Cotton [7]; 10% in the assay on Wheat [9]; 50% with Wheat [16]; 90% in the assay on Soybean [17]. Further, the plant injury at 1000 g/ha in the assay on Rice [18] was found to be 20%; in the assay with Rice [19] it was 40%; in the assay with Cotton [21], 70%; in the assay with Soybean [22], 50%. Besides, the pest or weed control at 1000 g/ha with Field Bindweed [2] is 95%; in the assay on Green Foxtail [4], 80%; in the assay with Velvetleaf [5], 100%; with Barnyardgrass [6] it was 50%; in the assay on Morningglory [8] it was 100%; in the assay with Morningglory [10] it was 100%. The pest or weed control at 1000 g/ha with Barnyardgrass [11] was found to be 80%; in the assay on Field Bindweed [12], 100%; with Johnsongrass [13], 80%; in the assay on Johnsongrass [14], 40%; in the assay with Green Foxtail [15] it was 80%; in the assay with Velvetleaf [20], 100%.

Consider `CCS(=O)(=O)Nc1cc(-n2nnn(CCCF)c2=O)c(Cl)cc1F` [Compound 39, 1-[2-Chloro-4-fluoro-5-(N--ethylsulfonylamino)phenyl]-4,5-dihydro-4-(3-fluoropropyl)-5H--tetrazol-5-one], for which the plant injury at 1000 g/ha in the assay on Field Corn [1] is 70%; in the assay with Field Corn [3], 50%; in the assay with Cotton [7] it was 100%; in the assay on Wheat [9], 20%; in the assay with Wheat [16] it was 30%; in the assay with Soybean [17], 95%. Moreover, the plant injury at 1000 g/ha in the assay on Rice [18] amounted to 20%; in the assay on Rice [19] it was 10%; in the assay on Cotton [21] it was 50%; with Soybean [22] it was 10%. Besides, the pest or weed control at 1000 g/ha stood at 70% in the assay with Field Bindweed [2]; 50% in the assay with Green Foxtail [4]; 100% in the assay on Velvetleaf [5]; 50% with Barnyardgrass [6]; 100% in the assay with Morningglory [8]; 100% with Morningglory [10]. The pest or weed control at 1000 g/ha in the assay with Barnyardgrass [11] is 60%; in the assay with Field Bindweed [12], 100%; with Johnsongrass [13] it was 50%; in the assay on Johnsongrass [14], 10%; in the assay with Green Foxtail [15] it was 50%; in the assay with Velvetleaf [20], 100%.

As to `Cn1nnn(-c2cc(N(S(C)(=O)=O)S(C)(=O)=O)c(Cl)cc2F)c1=O` [Compound 40], the plant injury at 4000 g/ha with Field Corn [1] (4.0 kg/ha) worked out at 30%; with Field Corn [3] (4.0 kg/ha), 20%; in the assay on Cotton [7] (4.0 kg/ha), 40%; with Wheat [9] (4.0 kg/ha), 30%; in the assay on Wheat [16] (4.0 kg/ha), 20%; in the assay on Soybean [17] (4.0 kg/ha), 20%. Also, the plant injury at 4000 g/ha with Rice [18] (4.0 kg/ha) is 10%; with Rice [19] (4.0 kg/ha), 20%; in the assay on Cotton [21] (4.0 kg/ha), 50%; with Soybean [22] (4.0 kg/ha) it was 20%. Further, the pest or weed control at 4000 g/ha with Field Bindweed [2] (4.0 kg/ha) was 40%; with Green Foxtail [4] (4.0 kg/ha), 30%; in the assay with Velvetleaf [5] (4.0 kg/ha), 100%; with Barnyardgrass [6] (4.0 kg/ha) it was 60%; in the assay with Morningglory [8] (4.0 kg/ha), 70%; in the assay on Morningglory [10] (4.0 kg/ha) it was 60%. Besides, the pest or weed control at 4000 g/ha worked out at 70% in the assay on Barnyardgrass [11] (4.0 kg/ha); 40% in the assay with Field Bindweed [12] (4.0 kg/ha); 30% in the assay on Johnsongrass [13] (4.0 kg/ha); 40% with Johnsongrass [14] (4.0 kg/ha); 40% in the assay with Green Foxtail [15] (4.0 kg/ha); 70% with Velvetleaf [20] (4.0 kg/ha).

Take `CCCn1nnn(-c2cc(N(S(=O)(=O)CC)S(=O)(=O)CC)c(Cl)cc2F)c1=O` [Compound 49, 1-[4-Chloro-2-fluoro-5-[bis-(N--ethylsulfonyl)amino]phenyl]-4,5-dihydro-4-propyl-5H--tetrazol-5-one]: the plant injury at 2000 g/ha was determined as 90% in the assay on Field Corn [1]; 80% in the assay on Field Corn [3]; 100% with Cotton [7]; 95% with Wheat [9]; 80% in the assay on Wheat [16]; 50% in the assay on Soybean [17]. The plant injury at 2000 g/ha in the assay on Rice [18] worked out at 50%; in the assay with Rice [19] it was 70%; with Cotton [21], 90%; in the assay on Soybean [22], 20%. For the same compound, the pest or weed control at 2000 g/ha in the assay on Field Bindweed [2] stood at 80%; in the assay with Green Foxtail [4], 95%; in the assay with Velvetleaf [5], 100%; in the assay with Barnyardgrass [6], 95%; in the assay on Morningglory [8], 70%; in the assay on Morningglory [10], 90%. The pest or weed control at 2000 g/ha was determined as 100% with Barnyardgrass [11]; 80% with Field Bindweed [12]; 90% in the assay on Johnsongrass [13]; 80% in the assay on Johnsongrass [14]; 100% in the assay on Green Foxtail [15]; 100% in the assay with Velvetleaf [20].

For the compound `CCCn1nnn(-c2cc(NS(=O)(=O)CC)c(Cl)cc2F)c1=O` [Compound 51, 1-[4-Chloro-2-fluoro-5-(N--ethylsulfonylamino)phenyl]-4,5-dihydro-4-propyl-5H--tetrazol-5-one], the plant injury at 2000 g/ha with Field Corn [1] was determined as 70%; with Field Corn [3] it was 60%; with Cotton [7] it was 100%; in the assay with Wheat [9], 20%; with Wheat [16], 70%; in the assay on Soybean [17], 70%. For the same compound, the plant injury at 2000 g/ha with Rice [18] was 60%; with Rice [19], 30%; in the assay on Cotton [21] it was 100%; with Soybean [22], 20%. The pest or weed control at 2000 g/ha was 100% in the assay on Field Bindweed [2]; 80% in the assay with Green Foxtail [4]; 100% in the assay with Velvetleaf [5]; 80% with Barnyardgrass [6]; 100% in the assay with Morningglory [8]; 100% in the assay on Morningglory [10]. The pest or weed control at 2000 g/ha was determined as 70% with Barnyardgrass [11]; 100% in the assay on Field Bindweed [12]; 70% in the assay on Johnsongrass [13]; 10% with Johnsongrass [14]; 95% with Green Foxtail [15]; 100% in the assay with Velvetleaf [20].
